From US10074530B1, “Carbon nanotube anchor for mass spectrometer” (University of South Florida, priority 2008, dated 2018)

Experiment: pH of solute solutions of equivalent molarity
Format: physicochemical
Conditions: solution in 1:1 volumetric ratio acetonitrile to de-ionized water; 1.32 × 10^−6 mol, concentration as in Table 3

Point of comparison: `O=C(O)c1ccccc1` [Benzoic acid], pH 3.6. Against it:
- Oc1ccccc1O [Catechol] — higher, 4.5
- OCCCCCCCCCCO [Decanediol, 1,10-Decanediol] — higher, 7.6
- O=C(O)c1ccccc1O [Salicylic acid] — lower, 2.8
- N#CC(=Cc1ccc(O)cc1)C(=O)O [αCHCA, α-cyano-4-hydroxycinnamic acid] — lower, 2.75

Experiment: Solubility of matrix in acetonitrile/de-ionized water matrix solvent
Format: physicochemical
Conditions: acetonitrile/de-ionized water 1:1 (v/v), aqueous with cosolvent or surfactant or cyclodextrin, thermodynamic from solid; 1:1 volumetric ratio acetonitrile to de-ionized water; read-out: Matrix concentration that displayed insolubility
Procedure: To further investigate the sample concentrating properties of CNT anchor spots, experiments were conducted using varying concentration of sample. Solutions were prepared. A solution of 1:1 volumetric ratio of acetonitrile to de-ionized water was prepared as a matrix solvent. Dry crystalline matrix αCHCA was weighed out with a Sartorius Research (Goettingen, Germany) model R200D digital precision balance and combined in a 1.5 mL Eppendorf® Safe-Lock Microcentrifuge tube (Westbury, N.Y.) with sufficient quantity of solution to achieve a matrix concentration varied over three orders of magnitude from 0.006 mg/mL to 6 mg/mL. […] All matrix solutions were prepared freshly and independently of each other in order to reduce possibility of concentration error. The samples were prepared by manually depositing 0.2 μL of solution from pipette to new carbon nanotube enhanced substrates (same parameters as previous experiment). The droplets were allowed to dry in ambient conditions (room temperature 23° C.), and time-lapse images were captured using the optical microscope described previously.

For `N#CC(=Cc1ccc(O)cc1)C(=O)O` [αCHCA, α-cyano-4-hydroxycinnamic acid], the solubility was > 6000 µg/mL.
